Drawing on patent US20230295200A1 (REGENTS OF THE UNIVERSITY OF MICHIGAN, priority 2022, published 2023), this text covers Ki for 16 compounds.

pKi: −log10 of the molar value.

In general, pKi refers to −log10 of the Ki, conventionally taken in molar units. A high value points to a low Ki.

This test addresses T1, STAT5A (Homo sapiens, UniProt P42229).
T1 sequence (P42229 1-794): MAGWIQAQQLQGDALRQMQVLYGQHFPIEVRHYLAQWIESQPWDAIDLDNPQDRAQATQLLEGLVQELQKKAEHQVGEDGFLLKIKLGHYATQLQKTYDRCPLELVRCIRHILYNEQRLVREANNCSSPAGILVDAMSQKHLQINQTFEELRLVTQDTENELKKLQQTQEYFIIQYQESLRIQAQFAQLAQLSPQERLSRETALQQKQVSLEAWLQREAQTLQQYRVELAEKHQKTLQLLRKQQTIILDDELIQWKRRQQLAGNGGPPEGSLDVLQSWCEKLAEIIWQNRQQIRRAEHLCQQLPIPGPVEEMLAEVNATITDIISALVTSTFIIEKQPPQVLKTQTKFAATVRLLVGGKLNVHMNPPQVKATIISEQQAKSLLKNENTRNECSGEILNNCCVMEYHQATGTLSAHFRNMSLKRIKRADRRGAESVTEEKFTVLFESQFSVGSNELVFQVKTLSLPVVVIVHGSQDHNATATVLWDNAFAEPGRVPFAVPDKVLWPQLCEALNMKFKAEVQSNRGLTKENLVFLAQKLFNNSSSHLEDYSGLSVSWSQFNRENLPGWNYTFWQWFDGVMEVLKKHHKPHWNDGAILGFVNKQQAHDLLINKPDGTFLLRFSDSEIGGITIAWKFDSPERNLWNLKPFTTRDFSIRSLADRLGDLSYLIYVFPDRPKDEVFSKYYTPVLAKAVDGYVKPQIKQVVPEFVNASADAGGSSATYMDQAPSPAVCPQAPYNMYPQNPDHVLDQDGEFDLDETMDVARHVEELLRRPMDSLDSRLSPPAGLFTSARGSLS
The experiment in a line: Fluorescence polarization (FP) binding assay, STAT5A. Conditions: FP competition, 5 nM fluorescein-labeled tracer, 200 nM protein, PBS pH7.4. Here is the method:
Evaluation of the activity of the inhibitors may be accomplished by fluorescence polarization (FP) experiments. A representative general protocol is the following:
Fluorescence polarization (FP) experiments are performed in black round-bottom plates using the CLARIOstar microplate reader. To each well, fluorescein-labeled tracer and STAT5 or STAT6 protein are added in assay buffer. […] The inhibition constants are determined as the concentration of the STAT5 or STAT6 at which 50% of the ligand is bound.
Fluorescence polarization (FP) experiments were performed in 96-well, black round-bottom plates (Microfluor 2, Fisher Scientific) using the CLARIOstar microplate reader (BMG Labtech). To each well, 5 nM of fluoresceinlabeled tracer and 200 nM of STAT5 and/or STAT6 protein were added to a final volume of 100 μl in the assay buffer (PBS pH7.4+0.01% BGG+0.01% Tween-20, 2 mM DTT). The plate was mixed on a shaker for 15 m and incubated at room temperature for 1 h to reach equilibrium. […] All experimental data were analyzed using Prism 8.0 software (GraphPad Software), and the inhibition constants were determined by nonlinear curve fitting as the concentration of the STAT5 and/or STAT6 at which 50% of the ligand is bound.
In the case of `CC(C)(C)[C@H](NC(=O)c1cc2cc(C(F)(F)P(=O)(O)O)ccc2s1)C(=O)N1CCC[C@H]1C(=O)Nc1ncc(-c2ccccc2F)s1` [Compound 259, (difluoro(2-(((S)-1-((S)-2-((5-(2-fluorophenyl)thiazol-2-yl)carbamoyl)pyrrolidin-1-yl)-3,3-dimethyl-1-oxobutan-2-yl)carbamoyl)benzo[b]thiophen-5-yl)methyl)phosphonic acid], the pKi was 5.00 to 6.00.
With `CC(C)(C)[C@H](NC(=O)c1cc2cc(C(F)(F)P(=O)(O)O)ccc2s1)C(=O)N1CCC[C@H]1C(=O)Nc1ncc(-c2cccc(F)c2)s1` [Compound 260, (difluoro(2-(((S)-1-((S)-2-((5-(3-fluorophenyl)thiazol-2-yl)carbamoyl)pyrrolidin-1-yl)-3,3-dimethyl-1-oxobutan-2-yl)carbamoyl)benzo[b]thiophen-5-yl)methyl)phosphonic acid] the figure was 6.00 to 7.00.
`CC(C)(C)[C@H](NC(=O)c1cc2cc(C(F)(F)P(=O)(O)O)ccc2s1)C(=O)N1CCC[C@H]1C(=O)Nc1ncc(-c2ccc(F)cc2)s1` [Compound 261, (difluoro(2-(((S)-1-((S)-2-((5-(4-fluorophenyl)thiazol-2-yl)carbamoyl)pyrrolidin-1-yl)-3,3-dimethyl-1-oxobutan-2-yl)carbamoyl)benzo[b]thiophen-5-yl)methyl)phosphonic acid] gave a pKi of 5.00 to 6.00.
Under `CC(C)(C)[C@H](NC(=O)c1cc2cc(C(F)(F)P(=O)(O)O)ccc2s1)C(=O)N1CCC[C@H]1C(=O)Nc1ncc(-c2cccc(Cl)c2)s1` [Compound 262, ((2-(((S)-1-((S)-2-((5-(3-chlorophenyl)thiazol-2-yl)carbamoyl)pyrrolidin-1-yl)-3,3-dimethyl-1-oxobutan-2-yl)carbamoyl)benzo[b]thiophen-5-yl)difluoromethyl)phosphonic acid] stands 5.00 to 6.00.
With `CC(C)(C)[C@H](NC(=O)c1cc2cc(C(F)(F)P(=O)(O)O)ccc2s1)C(=O)N1CCC[C@H]1C(=O)Nc1ncc(-c2ccc(Cl)cc2)s1` [Compound 263, ((2-(((S)-1-((S)-2-((5-(4-chlorophenyl)thiazol-2-yl)carbamoyl)pyrrolidin-1-yl)-3,3-dimethyl-1-oxobutan-2-yl)carbamoyl)benzo[b]thiophen-5-yl)difluoromethyl)phosphonic acid] the figure was under 5.00; with `CC(C)(C)[C@H](NC(=O)c1cc2cc(C(F)(F)P(=O)(O)O)ccc2s1)C(=O)N1CCC[C@H]1C(=O)Nc1ncc(-c2ccc(Br)cc2)s1` [Compound 264, ((2-(((S)-1-((S)-2-((5-(4-bromophenyl)thiazol-2-yl)carbamoyl)pyrrolidin-1-yl)-3,3-dimethyl-1-oxobutan-2-yl)carbamoyl)benzo[b]thiophen-5-yl)difluoromethyl)phosphonic acid], 5.00 to 6.00; with `CN(C(=O)[C@@H]1CCCCCN1C(=O)[C@@H](NC(=O)c1cc2cc(C(F)(F)P(=O)(O)O)ccc2s1)C(C)(C)C)c1ncc(-c2ccccc2)s1` [Compound 303, ((2-(((S)-3,3-dimethyl-1-((S)-2-(methyl(5-phenylthiazol-2-yl)carbamoyl)azepan-1-yl)-1-oxobutan-2-yl)carbamoyl)benzo[b]thiophen-5-yl)difluoromethyl)phosphonic acid], 5.00 to 6.00.
With `CCN(C(=O)[C@@H]1CCCCCN1C(=O)[C@@H](NC(=O)c1cc2cc(C(F)(F)P(=O)(O)O)ccc2s1)C(C)(C)C)c1ncc(-c2ccccc2)s1` [Compound 304, ((2-(((S)-1-((S)-2-(ethyl(5-phenylthiazol-2-yl)carbamoyl)azepan-1-yl)-3,3-dimethyl-1-oxobutan-2-yl)carbamoyl)benzo[b]thiophen-5-yl)difluoromethyl)phosphonic acid] the figure was 5.00 to 6.00.
`CN(C)C(=O)CCN(C(=O)[C@@H]1CCCN1C(=O)[C@@H](NC(=O)c1cc2cc(C(F)(F)P(=O)(O)O)ccc2s1)C1CC1)c1ccc(-c2nccs2)cc1` [Compound 321, ((2-(((S)-1-cyclopropyl-2-((S)-2-((3-(dimethylamino)-3-oxopropyl)(4-(thiazol-2-yl)phenyl)carbamoyl)pyrrolidin-1-yl)-2-oxoethyl)carbamoyl)benzo[b]thiophen-5-yl)difluoromethyl)phosphonic acid] gave a pKi of 5.00 to 6.00.
With `CCC(CC)[C@H](NC(=O)c1cc2cc(C(F)(F)P(=O)(O)O)ccc2s1)C(=O)N1CCC[C@H]1C(=O)N(CCC(=O)N(C)C)c1ccc(-c2nccs2)cc1` [Compound 322, ((2-(((S)-1-((S)-2-((3-(dimethylamino)-3-oxopropyl)(4-(thiazol-2-yl)phenyl)carbamoyl)pyrrolidin-1-yl)-3-ethyl-1-oxopentan-2-yl)carbamoyl)benzo[b]thiophen-5-yl)difluoromethyl)phosphonic acid] the figure was 6.00 to 7.00.
Under `CN(C)C(=O)CCN(C(=O)[C@@H]1CCCN1C(=O)[C@@H](NC(=O)c1cc2cc(C(F)(F)P(=O)(O)O)ccc2s1)C1CCCCC1)c1ccc(-c2nccs2)cc1` [Compound 323, ((2-(((S)-1-cyclohexyl-2-((S)-2-((3-(dimethylamino)-3-oxopropyl)(4-(thiazol-2-yl)phenyl)carbamoyl)pyrrolidin-1-yl)-2-oxoethyl)carbamoyl)benzo[b]thiophen-5-yl)difluoromethyl)phosphonic acid] stands 5.00 to 6.00; under `CN(C)C(=O)CCN(C(=O)[C@@H]1CCCN1C(=O)[C@@H](NC(=O)c1cc2cc(C(F)(F)P(=O)(O)O)ccc2s1)c1ccccc1)c1ccc(-c2nccs2)cc1` [Compound 324, ((2-(((S)-2-((S)-2-((3-(dimethylamino)-3-oxopropyl)(4-(thiazol-2-yl)phenyl)carbamoyl)pyrrolidin-1-yl)-2-oxo-1-phenylethyl)carbamoyl)benzo[b]thiophen-5-yl)difluoromethyl)phosphonic acid], 5.00 to 6.00.
With `CN(C)C(=O)CCN(C(=O)[C@@H]1CCCN1C(=O)[C@H](Cc1ccc(F)cc1)NC(=O)c1cc2cc(C(F)(F)P(=O)(O)O)ccc2s1)c1ccc(-c2nccs2)cc1` [Compound 325, ((2-(((S)-1-((S)-2-((3-(dimethylamino)-3-oxopropyl)(4-(thiazol-2-yl)phenyl)carbamoyl)pyrrolidin-1-yl)-3-(4-fluorophenyl)-1-oxopropan-2-yl)carbamoyl)benzo[b]thiophen-5-yl)difluoromethyl)phosphonic acid] the figure was 6.00 to 7.00.
With `CN(C)C(=O)CCN(C(=O)[C@@H]1CCCN1C(=O)[C@H](Cc1ccc(Br)cc1)NC(=O)c1cc2cc(C(F)(F)P(=O)(O)O)ccc2s1)c1ccc(-c2nccs2)cc1` [Compound 326, ((2-(((S)-3-(4-bromophenyl)-1-((S)-2-((3-(dimethylamino)-3-oxopropyl)(4-(thiazol-2-yl)phenyl)carbamoyl)pyrrolidin-1-yl)-1-oxopropan-2-yl)carbamoyl)benzo[b]thiophen-5-yl)difluoromethyl)phosphonic acid], the pKi was 5.00 to 6.00.
Consider `CN(C)C(=O)CCN(C(=O)[C@@H]1CCCN1C(=O)[C@H](Cc1ccc(C(F)(F)F)cc1)NC(=O)c1cc2cc(C(F)(F)P(=O)(O)O)ccc2s1)c1ccc(-c2nccs2)cc1` [Compound 327, ((2-(((S)-1-((S)-2-((3-(dimethylamino)-3-oxopropyl)(4-(thiazol-2-yl)phenyl)carbamoyl)pyrrolidin-1-yl)-1-oxo-3-(4-(trifluoromethyl)phenyl)propan-2-yl)carbamoyl)benzo[b]thiophen-5-yl)difluoromethyl)phosphonic acid], for which the pKi was 5.00 to 6.00.
Under `CN(C)C(=O)CCN(C(=O)[C@@H]1CCCN1C(=O)[C@H](CCc1ccccc1)NC(=O)c1cc2cc(C(F)(F)P(=O)(O)O)ccc2s1)c1ccc(-c2nccs2)cc1` [Compound 328, ((2-(((S)-1-((S)-2-((3-(dimethylamino)-3-oxopropyl)(4-(thiazol-2-yl)phenyl)carbamoyl)pyrrolidin-1-yl)-1-oxo-4-phenylbutan-2-yl)carbamoyl)benzo[b]thiophen-5-yl)difluoromethyl)phosphonic acid] stands 6.00 to 7.00.
